Measured values reported in patent US20120197004A1, “NOVEL ANTI-MICROBIAL PEPTIDOMIMETIC COMPOUNDS AND METHODS TO CALCULATE ANTI-MICROBIAL ACTIVITY” (priority 2006, published 2012).
≈ marks a conversion by molar mass, not a printed value. *1 amine or outer side, *2 acyl side, *3 side chain or, on linkers, in order; H or OH if unused. Where a SMILES comes first, the peptide text is derived from it. [ ]: non-standard residue; d: D form. ξ: configuration not given here. Oic = O=C(O)[C@@H]1C[C@@H]2CCCC[C@@H]2N1; Ethylenediamine = C(CN[*:2])N[*:1]; Tic = O=C(O)[C@@H]1Cc2ccccc2CN1; 2Thi = N[C@@H](Cc1cccs1)C(=O)O; ξTic = O=C(O)C1Cc2ccccc2CN1; ξOic = O=C(O)C1CC2CCCCC2N1

Key:
in vitro [1] = settings: mouse, microsomes, pH 7.4
[2] = system: Bacillus subtillis (ATCC 43223); settings: for MIC Bacillus Subtillis: ATCC 43223
in vitro [3] = settings: dog, microsomes, pH 7.4
in vitro [4] = settings: human, microsomes, pH 7.4
[5] = system: Mycobacterium ranae (ATCC 110); settings: for MIC Mycobacterium ranae / Minimum Inhibitory Concentration Mycobacterium ranae: ATCC 110
[6] = system: Salmonella typhimurium (ATCC 13311); settings: for MIC Salmonella typhimurium: ATCC 13311
[7] = system: Staphylococcus aureus Methicillin/Gentamicin/Tetracycline Resistant (ATCC 33592); settings: for MIC Staphylococcus aureus ME/GM/TC resistant: Minimal Inhibitory Concentration, tested at 100-0.1 in 1% DMSO; for Minimum Inhibitory Concentration Staphylococcus aureus ME/GM/TC resistant: in vitro MIC, tested at 100, 30, 10, 3, 1, 0.3 and 0.1 μM in 1% DMSO
in vitro [8] = settings: rat, microsomes, pH 7.4
[9] = Metabolic stability, mouse liver microsomes; settings: mouse, microsomes, pH 7.4
[10] = Metabolic stability, monkey liver microsomes; settings: monkey, microsomes, pH 7.4
[11] = Metabolic stability, human liver microsomes
[12] = Metabolic stability, dog liver microsomes; settings: dog, microsomes, pH 7.4
[13] = Metabolic stability, rat liver microsomes; settings: rat, microsomes, pH 7.4
in vitro [14] = settings: monkey, microsomes, pH 7.4
B. melitensis 16M = settings: in vitro MIC
Plague CO92 = settings: in vitro MIC; listed as 56
Bacillus anthracis Ames = settings: in vitro MIC; listed as 56
F. tularensis SCHU-S4 = settings: in vitro MIC
mouse cutaneous injury = assay: Mouse skin wound healing model; format: in vivo, CD-1 derived male mice; settings: topical once daily for 10 days; test substances 100 μg/mouse, CGS-21680 10 μg/mouse
Experimental: In-vivo assays: Selected compounds were evaluated in an in-vivo mouse skin wound healing model by MDS Pharma Services using the following protocol. Groups of CD-1 derived male mice (n=5) weighting 24±2 g were used. Under hexobarbitol (90 mg/kg, IP) anesthesia, the shoulder and back region of each animal was shaved. A sharp punch (ID 12 mm) was applied to remove the skin including panniculus carnosus and adherent tissues. […] The percent closure of the wound (%) was calculated, and wound half-closure time (CT50) was analyzed by linear regression using Graph-Prism (Graph Software USA). One-way ANOVA followed by Dunnett's test was applied for comparison between the treated and its corresponding vehicle groups at each measurement time point. Differences are considered statistically significant at P<0.05.^41

| SMILES | remaining at 0.25 h, 1 μM (in vitro [1]) [%] | remaining at 0.5 h, 1 μM (in vitro [1]) [%] | remaining at 1 h, 1 μM (in vitro [1]) [%] | MIC Bacillus Subtillis [2] [µM] | remaining at 0.5 h, 1 μM (in vitro [3]) [%] | remaining at 1 h, 1 μM (in vitro [3]) [%] | remaining at 0.25 h, 1 μM (in vitro [4]) [%] | MIC Mycobacterium ranae [5] [µM] | Minimum Inhibitory Concentration Mycobacterium ranae [5] [µM] | MIC Salmonella typhimurium [6] [µM] | MIC Staphylococcus aureus ME/GM/TC resistant [7] [µM] | Minimum Inhibitory Concentration Staphylococcus aureus ME/GM/TC resistant [7] [µM] | remaining at 1 h, 1 μM (in vitro [8]) [%] | remaining at 0.25 h, 1 μM (in vitro [14]) [%] | remaining at 0.5 h, 1 μM (in vitro [14]) [%] | remaining at 1 h, 1 μM (in vitro [14]) [%] | remaining at 0.25 h, 1 μM (in vitro [8]) [%] | remaining at 0.5 h, 1 μM (in vitro [8]) [%] | other results |
| --- | --- | --- | --- | --- | --- | --- | --- | --- | --- | --- | --- | --- | --- | --- | --- | --- | --- | --- | --- |
| CC(=O)NCC(=O)N[C@@H](Cc1ccccc1)C(=O)N[C@@H](Cc1ccccc1)C(=O)N1C(C(=O)NCC(=O)N[C@@H](CCCCN)C(=O)N[C@@H](Cc2ccccc2)C(=O)N2C(C(=O)NCC(=O)N[C@@H](Cc3ccccc3)C(=O)N[C@@H](Cc3ccccc3)C(=O)N3C(C(=O)NCC(=O)N[C@@H](CCCCN)C(=O)N[C@@H](Cc4ccccc4)C(=O)N[C@@H](CCCCN)C(=O)N[C@@H](CCCCN)C(=O)N[C@@H](CCCCN)C(=O)N[C@@H](CCCCN)C(N)=O)CC4CCCCC43)CC3CCCCC32)CC2CCCCC21 (some centres unmarked) [FKAB-1Gh, Ac-GF-F-Oic-GK-F-Oic-GF-F-Oic-GK-F-KKKK-CONH2] (Ac-GFF[ξOic]GKF[ξOic]GFF[ξOic]GKFKKKK-NH2) | 36 | 71 | 112 | 1.00 (≈ 2.39 µg/mL) | 103 | 60 | 92 | 10.00 (≈ 23.9 µg/mL) | 10 | 10 (≈ 23.9 µg/mL) | 10.00 (≈ 23.9 µg/mL) | 10 | 0 |  |  |  |  |  | % hemolysis 100/25 μM (first value) (red blood cells): 27.30%/; % hemolysis 100/25 μM (second value) (red blood cells): 8.9% |
| C[C@]12CC[C@H]3[C@@H](CCC4=CC(=O)CC[C@@]43C)[C@@H]1CC[C@@H]2O [Testosterone, testosterone, reference compound] |  |  |  |  |  |  |  |  |  |  |  |  |  |  |  |  |  |  | remaining at 0.25 h, 1 μM [9]: 3%; remaining at 0.5 h, 1 μM [9]: 0%; remaining at 0.25 h, 1 μM [10]: 34%; remaining at 0.5 h, 1 μM [10]: 11%; remaining at 1 h, 1 μM [10]: 1%; remaining at 0.25 h, 1 μM ([11]; human, microsomes, pH 7.4): 77%; remaining at 0.5 h, 1 μM ([11]; human, microsomes, pH 7.4): 53%; remaining at 1 h, 1 μM ([11]; human, microsomes, pH 7.4): 29%; remaining at 0.25 h, 1 μM [12]: 85%; remaining at 0.5 h, 1 μM [12]: 62%; remaining at 1 h, 1 μM [12]: 33%; remaining at 0.25 h, 1 μM [13]: 0%; remaining at 0.5 h, 1 μM [13]: 0% |
| CC(=O)CC(c1ccccc1)c1c(O)c2ccccc2oc1=O (centres unmarked) [Warfarin, warfarin, reference compound] | 86 | 111 | 110 |  | 104 | 94 |  |  |  |  |  |  | 84 | 113 | 109 | 81 | 93 | 97 | % remaining at time T, Human Liver ([11]; first human column (T = 15 min, head not given), 1 μM, 0.5 mg/mL microsomes): 100%; remaining at 0.25 h, 1 μM (in vitro [3]): 109%; remaining at 0.5 h, 1 μM (in vitro [4]): 97%; remaining at 1 h, 1 μM (in vitro [4]): 97% |
| NCCCC[C@H](NC(=O)[C@H](CCCCN)NC(=O)[C@H](CCCCN)NC(=O)[C@H](CCCCN)NC(=O)C1Cc2ccccc2CN1C(=O)[C@H](CCCCN)NC(=O)CNC(=O)C1CC2CCCCC2N1C(=O)C1Cc2ccccc2CN1C(=O)[C@H](Cc1ccccc1)NC(=O)CNC(=O)C1CC2CCCCC2N1C(=O)C1Cc2ccccc2CN1C(=O)[C@H](CCCCN)NC(=O)CNC(=O)C1CC2CCCCC2N1C(=O)C1Cc2ccccc2CN1C(=O)[C@H](Cc1ccccc1)NC(=O)CNC(=O)[C@@H](N)Cc1cccs1)C(N)=O (stereo partly drawn) [FKAB-1G-Thi, Thi-GF-Tic-Oic-GK-Tic-Oic-GF-Tic-Oic-GK-Tic-KKKK-CONH2] (H-[2Thi]GF[ξTic][ξOic]GK[ξTic][ξOic]GF[ξTic][ξOic]GK[ξTic]KKKK-NH2) | 41 | 67 |  |  | 61 |  |  |  | 30 |  |  | 10 |  |  |  |  | 107 | 61 | Minimum Inhibitory Concentration B. melitensis 16M (B. melitensis 16M): >500 µg/mL; Minimum Inhibitory Concentration Plague CO92 (Plague CO92): 15.6 µg/mL; Minimum Inhibitory Concentration Bacillus anthracis Ames (Bacillus anthracis Ames): 1.95 µg/mL; Minimum Inhibitory Concentration F. tularensis SCHU-S4 (F. tularensis SCHU-S4): 250 µg/mL |
| CC(=O)NCC(=O)N[C@@H](Cc1ccccc1)C(=O)N1Cc2ccccc2CC1C(=O)N1C(C(=O)NCC(=O)N[C@@H](CCCCN)C(=O)N2Cc3ccccc3CC2C(=O)N2C(C(=O)NCC(=O)N[C@@H](Cc3ccccc3)C(=O)N3Cc4ccccc4CC3C(=O)N3C(C(=O)NCC(=O)N[C@@H](CCCCN)C(=O)N4Cc5ccccc5CC4C(=O)N[C@@H](CCCCN)C(=O)N[C@@H](CCCCN)C(=O)N[C@@H](CCCCN)C(=O)N[C@@H](CCCCN)C(=O)N[C@@H](CCCCN)C(N)=O)CC4CCCCC43)CC3CCCCC32)CC2CCCCC21 (stereo partly drawn) [FKAB-1Gi, Ac-GF-Tic-Oic-GK-Tic-Oic-GF-Tic-Oic-GK-Tic-KKKKK-CONH2] (Ac-GF[ξTic][ξOic]GK[ξTic][ξOic]GF[ξTic][ξOic]GK[ξTic]KKKKK-NH2) | 77 | 26 | 15 | 1.00 (≈ 2.57 µg/mL) | 63 | 79 | 86 | 3.00 (≈ 7.71 µg/mL) | 3 | 10 (≈ 25.7 µg/mL) | 3.00 (≈ 7.71 µg/mL) | 3 | 87 | 72 | 75 | 99 | 76 | 86 | % hemolysis 100/25 μM (first value) (red blood cells): 24.9%/; % hemolysis 100/25 μM (second value) (red blood cells): 18.9% |
| CC(=O)NCC(=O)N[C@@H](Cc1ccccc1)C(=O)N1Cc2ccccc2C[C@H]1C(=O)N1[C@H](C(=O)NCC(=O)N[C@@H](CCCCN)C(=O)N2Cc3ccccc3C[C@H]2C(=O)N2[C@H](C(=O)NCC(=O)N[C@@H](Cc3ccccc3)C(=O)N3Cc4ccccc4C[C@H]3C(=O)N3[C@H](C(=O)NCC(=O)N[C@@H](CCCCN)C(=O)N4Cc5ccccc5C[C@H]4C(=O)N[C@@H](CCCCN)C(=O)N[C@@H](CCCCN)C(=O)N[C@@H](CCCCN)C(=O)N[C@@H](CCCCN)C(=O)NCCN)C[C@@H]4CCCC[C@@H]43)C[C@@H]3CCCC[C@@H]32)C[C@@H]2CCCC[C@@H]21 [FKAB-1H, Ac-GF-Tic-Oic-GK-Tic-Oic-GF-Tic-Oic-GK-Tic-KKKK-CONH—CH2—CH2—NH2] (Ac-GF[Tic][Oic]GK[Tic][Oic]GF[Tic][Oic]GK[Tic]KKKK-Ethylenediamine) | 0 | 62 | 73 | 1.00 (≈ 2.48 µg/mL) |  |  | 34 | 10.00 (≈ 24.8 µg/mL) | 10 | 10 (≈ 24.8 µg/mL) | 3.00 (≈ 7.45 µg/mL) | 3 |  | 0 | 0 | 0 |  |  | p(MIC) Bacillus Subtillis ([2]; -log(MIC)): 6.00; Actual Bioactivity [5]: 5.000; p(MIC) Salmonella typhimurium ([6]; -log(MIC)): 5.00; p(MIC) Staphylococcus aureus ME/GM/TC resistant ([7]; -log(MIC)): 5.52; Actual Bioactivity ([7]; p(MIC) used in Staphylococcus aureus QSAR model): 5.520 |
| CCNC(=O)[C@H]1O[C@@H](n2cnc3c(N)nc(NCCc4ccc(CCC(=O)O)cc4)nc32)[C@H](O)[C@@H]1O [CGS-21680, 2-p-[2-carboxyethyl]phenethyl-amino-5′-N-ethylcarboxamide-adenosine, reference compound] |  |  |  |  |  |  |  |  |  |  |  |  |  |  |  |  |  |  | CT50 (wound half-closure time) (mouse cutaneous injury): 5.4 days; wound closure Day 3 (mouse cutaneous injury): 41.1%; wound closure Day 5 (mouse cutaneous injury): 54.6%; wound closure Day 7 (mouse cutaneous injury): 70.6%; wound closure Day 9 (mouse cutaneous injury): 77.6%; wound closure Day 11 (mouse cutaneous injury): 84.3% |
| CC(C)NCC(O)COc1cccc2ccccc12 (centres unmarked) [Propranolol, propranolol, reference compound] | 9 | 9 | 4 |  | 51 | 24 | 97 |  |  |  |  |  | 0.1 | 34 | 9 | 0.5 | 0.1 | 0.1 | remaining at 0.25 h, 1 μM (in vitro [3]): 76%; remaining at 0.5 h, 1 μM (in vitro [4]): 86%; remaining at 1 h, 1 μM (in vitro [4]): 72% |
